Source: ChEMBL document CHEMBL1201862, “PubChem BioAssay data set” (2004)
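Tested at 5 concentrations; 48 h exposure; 96-well plates; endpoints linearly interpolated, else capped at highest concentration. GI50: concentration for 50% inhibition of growth.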 Active and inactive are the calls of the source. Cut-off read from the data, not from the text of the source: active = GI50 up to about 1.1 µM and inactive = higher.

Columns and labels:
Assay in all cases: NCI tumour cell line growth inhibition, 48 h
EKVX = test system: EKVX
SR = test system: SR
RPMI-8226 = test system: RPMI-8226
HCC 2998 = test system: HCC 2998
SNB-78 = test system: SNB-78
A549 = test system: A549
786-0 = test system: 786-0
ACHN = test system: ACHN
OVCAR-4 = test system: OVCAR-4
UO-31 = test system: UO-31
SN12C = test system: SN12C
UACC-62 = test system: UACC-62
SF-295 = test system: SF-295
CAKI-1 = test system: CAKI-1
OVCAR-8 = test system: OVCAR-8
SK-MEL-28 = test system: SK-MEL-28
COLO 205 = test system: COLO 205
MDA-MB-231 = test system: MDA-MB-231
MCF7 = test system: MCF7
NCI/ADR-RES = test system: NCI/ADR-RES

Row | SMILES | GI50 (EKVX) | GI50 (SR) | GI50 (RPMI-8226) | GI50 (HCC 2998) | GI50 (SNB-78) | GI50 (A549) | GI50 (786-0) | GI50 (ACHN) | GI50 (OVCAR-4) | GI50 (UO-31) | GI50 (SN12C) | GI50 (UACC-62) | GI50 (SF-295) | GI50 (CAKI-1) | GI50 (OVCAR-8) | GI50 (SK-MEL-28) | GI50 (COLO 205) | GI50 (MDA-MB-231) | GI50 (MCF7) | GI50 (NCI/ADR-RES)
1 | CCOC(=O)/N=C(\N)SCc1ccccc1 | > 100 µM (inactive) | 31.6 µM (inactive) | 34.3 µM (inactive) | > 100 µM (inactive) | > 100 µM (inactive) | > 100 µM (inactive) | > 100 µM (inactive) | > 100 µM (inactive) | > 100 µM (inactive) | > 100 µM (inactive) | > 100 µM (inactive) | > 100 µM (inactive) | > 100 µM (inactive) | > 100 µM (inactive) | > 100 µM (inactive) | > 100 µM (inactive) |  |  |  | 
2 | CCCCNC(=NC#N)NCCCC | > 100 µM (inactive) | 78.7 µM (inactive) | > 100 µM (inactive) | > 100 µM (inactive) | > 100 µM (inactive) | > 100 µM (inactive) | 49.5 µM (inactive) | > 100 µM (inactive) | > 100 µM (inactive) | > 100 µM (inactive) | > 100 µM (inactive) | > 100 µM (inactive) | > 100 µM (inactive) | > 100 µM (inactive) | > 100 µM (inactive) | > 100 µM (inactive) | 38.2 µM (inactive) |  |  | 
3 | N#CCCN(c1ccc(/C=N/c2ccccc2)cc1)S(=O)(=O)c1ccccc1 | 35.7 µM (inactive) | > 100 µM (inactive) | > 100 µM (inactive) | 5.22 µM (inactive) | > 100 µM (inactive) | > 100 µM (inactive) | > 100 µM (inactive) |  | > 100 µM (inactive) | 17 µM (inactive) | > 100 µM (inactive) | 3.27 µM (inactive) | 12.4 µM (inactive) | > 100 µM (inactive) | > 100 µM (inactive) | > 100 µM (inactive) | > 100 µM (inactive) |  |  | 
4 | CCCCCCCCCCCOC(=S)NC(C)C | 20.9 µM (inactive) | 20.5 µM (inactive) | 14 µM (inactive) | 17 µM (inactive) | 33.9 µM (inactive) | 21.4 µM (inactive) | 19.1 µM (inactive) | 19.3 µM (inactive) | 24.8 µM (inactive) | 15.8 µM (inactive) | 16.1 µM (inactive) | 15.5 µM (inactive) | 21 µM (inactive) | 19 µM (inactive) | 16.6 µM (inactive) | 20.7 µM (inactive) |  |  |  | 
5 | C/C(=N\NS(=O)(=O)c1ccc([N+](=O)[O-])cc1)c1ccc[n+]([O-])n1 | 6.9 µM (inactive) | 3.92 µM (inactive) | 2.16 µM (inactive) | 9.46 µM (inactive) | 4.48 µM (inactive) | 2.19 µM (inactive) | 2.36 µM (inactive) | 2.44 µM (inactive) | 1.35 µM (inactive) | 2.64 µM (inactive) | 2.97 µM (inactive) | 1.21 µM (inactive) | 1.9 µM (inactive) | 2.32 µM (inactive) | 1.76 µM (inactive) | 3.21 µM (inactive) | 2.67 µM (inactive) |  |  | 
6 | O=C1/C(=C/c2ccccc2)CN(C(=O)OCc2ccccc2)C/C1=C\c1ccccc1 | 20.7 µM (inactive) | 1.53 µM (inactive) |  | 7.06 µM (inactive) | 14.8 µM (inactive) | 28.1 µM (inactive) | 11.5 µM (inactive) | 12.5 µM (inactive) | 11.6 µM (inactive) | 14.6 µM (inactive) | 13.8 µM (inactive) | 12.2 µM (inactive) | 12.8 µM (inactive) | 18.1 µM (inactive) | 13.1 µM (inactive) | 11.5 µM (inactive) | 16.1 µM (inactive) | 17.8 µM (inactive) | 6.43 µM (inactive) | 
7 | CN(C)CCCNc1c2ccccc2nc2cccc([N+](=O)[O-])c12 | 0.00185 µM (active) | < 0.001 µM (active) | < 0.001 µM (active) | < 0.001 µM (active) | 0.0117 µM (active) | < 0.001 µM (active) | < 0.001 µM (active) | < 0.001 µM (active) | < 0.001 µM (active) | 0.013 µM (active) | 0.00102 µM (active) |  | 0.0236 µM (active) | 0.0196 µM (active) | 0.0195 µM (active) | 0.00235 µM (active) | < 0.001 µM (active) | < 0.001 µM (active) | < 0.001 µM (active) | 0.00798 µM (active)
8 | COC1OC(C)C(OC(=O)C(C)(C)C)C(OS(=O)(=O)c2ccc(C)cc2)C1OS(=O)(=O)c1ccc(C)cc1 (stereo not drawn) |  | 15.4 µM (inactive) | > 100 µM (inactive) | > 100 µM (inactive) | > 100 µM (inactive) | > 100 µM (inactive) | > 100 µM (inactive) | > 100 µM (inactive) | > 100 µM (inactive) | > 100 µM (inactive) | > 100 µM (inactive) |  | > 100 µM (inactive) | 5.9 µM (inactive) | > 100 µM (inactive) | > 100 µM (inactive) | > 100 µM (inactive) |  |  | 
9 | COc1ccc(Br)c2c1CC(C(=O)O)CC2 (stereo not drawn) | > 100 µM (inactive) | > 54 µM (inactive) | > 100 µM (inactive) | > 100 µM (inactive) | > 100 µM (inactive) | > 100 µM (inactive) | > 100 µM (inactive) | > 100 µM (inactive) | > 100 µM (inactive) | > 100 µM (inactive) | > 100 µM (inactive) | > 100 µM (inactive) | > 100 µM (inactive) | > 100 µM (inactive) | > 100 µM (inactive) | > 100 µM (inactive) | > 100 µM (inactive) | > 100 µM (inactive) | > 100 µM (inactive) | > 100 µM (inactive)
10 | CC(C)/C=C1\CCC(CN2CCOCC2)C1=O (stereo not drawn) | 19.1 µM (inactive) | 3.75 µM (inactive) | 0.964 µM (active) | 20.2 µM (inactive) | 12.5 µM (inactive) | 26.3 µM (inactive) | 3.66 µM (inactive) | 18 µM (inactive) | 20.8 µM (inactive) | 20.7 µM (inactive) | 19.3 µM (inactive) | 18 µM (inactive) | 45 µM (inactive) | 4.24 µM (inactive) | 11.1 µM (inactive) | 17.7 µM (inactive) | 6.85 µM (inactive) |  |  | 
11 | O=C1C(Cl)C(c2ccc(O)cc2)N1n1cnc2ccccc2c1=O (stereo not drawn) | 29.7 µM (inactive) | 18.8 µM (inactive) | 19 µM (inactive) | 61.8 µM (inactive) | 49 µM (inactive) | > 100 µM (inactive) | 28.8 µM (inactive) | 16 µM (inactive) | 25.5 µM (inactive) | 55.1 µM (inactive) | 35.2 µM (inactive) | 18.7 µM (inactive) | 98.4 µM (inactive) | 31.5 µM (inactive) | 16.1 µM (inactive) | 26.7 µM (inactive) | 25.3 µM (inactive) |  |  | 
12 | O=C1c2ccccc2C(=O)c2c1oc1cc(O)c(Cl)cc21 | 8.75 µM (inactive) | 11.8 µM (inactive) | 4.54 µM (inactive) | 4.62 µM (inactive) | 5.69 µM (inactive) | 3.01 µM (inactive) | 10.8 µM (inactive) | 7 µM (inactive) | 8.18 µM (inactive) | 11.9 µM (inactive) | 7.98 µM (inactive) | 1.93 µM (inactive) | 2.8 µM (inactive) | 16.7 µM (inactive) | 7.38 µM (inactive) | 3.05 µM (inactive) | 1.72 µM (inactive) | 12.8 µM (inactive) | 8.11 µM (inactive) | 12.7 µM (inactive)
